{"source": "patent US20030176499A1", "about": "“Use of fibrates for the preparation of a medicament useful in the treatment of congestive heart failure” (priority 2003, published 2003)", "key": {"[1]": {"system": "male Wistar rats with left ventricular hypertrophy induced by constriction of the abdominal aorta", "assay": "Evaluation of cardiac function in rats with aortic constriction (left ventricular catheter)", "type": "in vivo, rat", "settings": "anaesthetised rats with aortic constriction, clofibrate 0.2% in the feed for 12 weeks, mean ± standard deviation", "protocol": "(§1) Animal-housed male Wistar rats weighing 100-120 g were used: 5 per cage (cage size: 425 mm×266 mm×180 mm with a sawdust litter) at a temperature of […] and 50±15% humidity with a 12/12 h light/darkness cycle and with 15-20 air changes/hour. The animals were fed with LP ALTROMIN (REIPER) feed and spring water ad libitum\n(§2) Left ventricular hypertrophy was induced in rats anaesthetised with Nembutal sodium, by means of constriction of the abdominal aorta with a clip (Ø0.8 mm) placed in the abdominal aorta between the diaphragm and the renal branches; one group of animals, which was then used as a control group, underwent the same operation but was not submitted to constriction of the aorta (shams).\n(§3) The animals were thus randomly assigned to the following groups:\n(§4) CLO: operated on with aortic constriction and treated for 12 weeks, from the day after the operation with clofibrate 0.2% in the feed (60-100 mg/kg/day (n=11).\nAt the end of treatment, cardiac function was evaluated, in the animals anaesthetised with Nembutal sodium, by means of a polyethylene catheter inserted in the left ventricle via the carotid and connected up to a pressure transducer (Statham p23 XL) and to an amplifier (Biomedica Mangoni bm 61).\nThe parameters recorded were: heart rate, ventricular systolic and end-diastolic pressure, and the positive and negative derivatives of ventricular pressure, which were recorded on a personal computer by means of a special data acquisition system (IDAS). The measurements were taken for a period of 30 minutes.\nThe data were expressed as mean ± standard deviation and were compared using Student's t-test for independent data. Differences with P<0.05 were regarded as statistically significant."}, "[2]": {"system": "male Wistar rats with left ventricular hypertrophy induced by constriction of the abdominal aorta", "settings": "rats with aortic constriction, clofibrate 0.2% in the feed for 12 weeks, mean ± standard deviation", "protocol": "as §1, §2, §3, §4\nAt the end of the experiments the animals were sacrificed by means of a lethal dose of Nembutal, the abdominal cavity was opened, the organs were exteriorised in order to verify correct positioning of the aortic clip, and the heart, lungs and liver were then removed and carefully dried and weighed after macroscopic observation of any abnormalities.\nThe data were expressed as mean ± standard deviation and were compared using Student's t-test for independent data. […]"}}, "data": [{"smiles": "CCOC(=O)C(C)(C)Oc1ccc(Cl)cc1", "note": "[CLO, clofibrate]", "values": [{"measurement": "DP/dt max = positive derivative of ventricular pressure", "setting": "[1]", "result": "16108 ± 1115", "unit": "eC mm Hg/sec"}, {"measurement": "DP/dt min = negative derivative of ventricular pressure", "setting": "[1]", "result": "9556 ± 560", "unit": "bA mm Hg/sec"}, {"measurement": "DP/dtmax/LVSP (positive derivative normalised for ventricular systolic pressure)", "setting": "[1]", "result": "77 ± 5", "unit": "s⁻¹"}, {"measurement": "HR = heart rate", "setting": "[1]", "result": "401 ± 16", "unit": "b/min"}, {"measurement": "LDevP/HW (developed pressure normalised for ventricular weight)", "setting": "[1]", "result": "13.3 ± 1.5", "unit": "aC"}, {"measurement": "LVEDP = left ventricular end-diastolic pressure", "setting": "[1]", "result": "7.2 ± 1.2", "unit": "mmHg"}, {"measurement": "LVSP = left ventricular systolic pressure", "setting": "[1]", "result": "206 ± 5", "unit": "aB mm Hg"}, {"measurement": "LdevP developed pressure", "setting": "[1]", "result": "207 ± 7", "unit": "cA mm Hg"}, {"measurement": "VW/BW (ventricular weight (mg) / body weight (g))", "setting": "[2]", "result": "3.33 ± 0.20", "unit": "a"}]}]}
